# Source: US4094966A, “Iodobenzene derivatives and X-ray contrast media containing the same” (priority 1974, dated 1978)
# Assays:
# [1] = Viscosity of 28% methylglucamine salt solutions at 37° C; assay type: physicochemical; details: 28% iodine methylglucamine salt solution
# Method: Pharmaceutical grade injectable solutions are prepared in the form of the methylgucamine or sodium salt, containing 28, 38 or 48 g iodine per 100 ml (solutions said to contain 28%, 38% and 48% iodine).
# It is apparent, from said results, that, contrary to expectations, the compounds of the formula (I) have relatively low solution viscosities.
# [2] = Osmolality determination (FISKE osmometer); assay type: physicochemical; details: solutions containing 28% iodine; methylglucamine salts; extrapolation from successive dilutions
# Method: Osmolality is determined by extrapolation of the values obtained on successive dilutions of solutions containing 28% or 38% iodine.
# Osmolality readings are made with a FISKE Model 230/D/330 D osmometer. This apparatus indicates this measurement as milliosmoles per kg of solution. Its operation is based on the principles of cryoscopy. The determinations were made with solutions containing 28% iodine.
# mice = assay: Acute toxicity determination, intravenous toxicity in mice; assay type: in vivo, mice (Swiss origin, IOPS mice of OFI strain); details: 24 hours, 28% I, Mgl salt
# Method: Intravenous toxicity determination was effected in Swiss origin, IOPS mice of OFI strain.
# Each dosage level was injected to a lot of 10 mice comprising 5 male and 5 female mice.
# Injections were made manually, in the caudal vein, at a rate of 2 ml/minute.
# Death rate during the 24 hours after injection was recorded.
# femoral artery = assay: Effect on the femoral rate of flow (peripheral vasodilatation); assay type: in vivo, mongrels; details: 1.5 ml into collateral of femoral artery; 28% I, Mgl salt
# Method: This test was carried out in Nembutal-anesthetized male or female 7-12 mongrels.
# Nembutal was used at a dosage of 30 mg/kg, with Vetranquil pre-medication, (overall intravenous injection of 2.5 mg), respiration was spontaneous.
# Rate of flow variations were recorded at the level of the right or left fermoral artery, by means of a Statham electromagnetic sensor.
# The injections were made in a collateral of the fermoral artery, downstream of the sensor, by means of a catheter mounted by the retrograde route, so as not to perturb the blood flow.
# The injections were made under a constant volume of 1.5 ml administered within 3-5 seconds.
# The same volume of an iostonic sodium chloride solution was also injected.
# [3] = Biliary clearance test in cats; assay type: in vivo; design: scale not given here; details: i.v., 0.10 g I/kg; 28% I, Mgl salt
# Method: This test was conducted in male or female adult cats weighing 3-4 kg.
# The test material was injected intravenously, at a dosage of 0.10 g/kg iodine at the level of the internal saphenous vein. Clearance of the material was monitored by X-ray control.
# X-ray pictures visualizing the gall bladder and the bladder were taken at the following times: 30 minutes, 1 hour, 2 hours, 3 hours, 4 hours, 5 hours, 6 hours.
# rats = assay: Toxicological investigation in rats on intracisternal injection (Melartin's method); assay type: in vivo; details: 56 mg I per rat
# From the text: The results of a toxicological investigation effected in rats on intracisternal injection, according to E. Melartin's method (InvestigativeRadiology 1970 5, 1, 13-21) are also set forth below.
structure (smiles),measurement,setting,value
"CNC(=O)c1c(I)c(NC(=O)CN(CC(=O)Nc2c(I)c(C(=O)NCCO)c(I)c(C(=O)NCCO)c2I)CC(=O)Nc2c(I)c(C(=O)NCCO)c(I)c(C(=O)NCCO)c2I)c(I)c(C(=O)O)c1I [Compound 31, 2,4,6-triiodo--3-N-methylcarbamyl-5-bis{[2,4,6-triiodo-3,5-bis(N-hydroxyethylcarbamyl)-phenyl]carbamylmethyl} aminoacetamido-benzoic acid]",Viscosity,[1],10.2 cps
same,Osmolality,[2],350 mosm/kg
same,"Acute toxicity in mice, i.v.",mice,15 grams I/kg
same,"Peripheral vasodilatation, femoral rate of flow",femoral artery,+
same,"Biliary clearance in cat, i.v.",[3],0
same,Death rate,rats,1/10
